PubChem BioAssay (NCI)
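Five concentrations, 48 hours, 96-well plates. TGI: total growth inhibition.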

Legend:
Assay in all cases: inhibition of tumour cell growth, NCI panel, 48 h
[1] = tested on: A498 renal
[2] = tested on: OVCAR-8 ovarian
[3] = tested on: HCC-2998 colon
[4] = tested on: CAKI-1 renal
[5] = tested on: MDA-MB-435
[6] = tested on: MALME-3M melanoma
[7] = tested on: SNB-75 CNS
[8] = tested on: SK-MEL-5 melanoma
[9] = tested on: TK-10 renal
[10] = tested on: UACC-62 melanoma
[11] = tested on: BT-549 breast
[12] = tested on: OVCAR-4 ovarian
[13] = tested on: UO-31 renal
[14] = tested on: U251 CNS
[15] = tested on: CCRF-CEM leukemia
[16] = tested on: KM12 colon
[17] = tested on: EKVX NSCLC
[18] = tested on: UACC-257 melanoma
[19] = tested on: 786-0 renal
[20] = tested on: MOLT-4 leukemia
[21] = tested on: HCT-15 colon
[22] = tested on: NCI-H522 lung
[23] = tested on: RXF 393 renal
[24] = tested on: SK-MEL-2 melanoma
[25] = tested on: MCF7 breast
[26] = tested on: NCI-H226 lung
[27] = tested on: HOP-92 NSCLC
[28] = tested on: NCI-H23 lung
[29] = tested on: LOX IMVI melanoma
[30] = tested on: HCT-116 colon
[31] = tested on: IGROV1 ovarian
[32] = tested on: HOP-62 NSCLC
[33] = tested on: MDA-N
[34] = tested on: NCI/ADR-RES ovarian
[35] = tested on: ACHN renal
[36] = tested on: RPMI-8226 leukemia
[37] = tested on: SF-539 CNS
[38] = tested on: SF-295 CNS
[39] = tested on: SW-620 colon
[40] = tested on: SNB-19 CNS
[41] = tested on: A549 NSCLC
[42] = tested on: T-47D breast
[43] = tested on: DU-145 prostate
[44] = tested on: OVCAR-3 ovarian
[45] = tested on: SK-MEL-28 melanoma
[46] = tested on: HT29 colon
[47] = tested on: M14 melanoma
[48] = tested on: SK-OV-3 ovarian
[49] = tested on: MDA-MB-231 breast
[50] = tested on: SF-268 CNS
[51] = tested on: HS 578T breast
[52] = tested on: SR leukemia
[53] = tested on: NCI-H460 lung
[54] = tested on: COLO 205 colon
[55] = tested on: K-562 leukemia
[56] = tested on: PC-3 prostate
[57] = tested on: OVCAR-5 ovarian
[58] = tested on: SN12C renal

## CC12c3c4cccc3Oc3cc(N)cc(c31)Oc1cc(N)cc(c12)O4
[1]
  TGI: 34 µM
[2]
  TGI: 32 µM
[3]
  TGI: > 39 µM
[4]
  TGI: 24.9 µM
[5]
  TGI: 4.4 µM
[6]
  TGI: 10.8 µM
[7]
  TGI: 14.7 µM
[8]
  TGI: 13 µM
[9]
  TGI: 25.3 µM
[10]
  TGI: 18.5 µM
[11]
  TGI: 13 µM
[12]
  TGI: 23.9 µM
[13]
  TGI: > 50.6 µM
[14]
  TGI: > 100 µM
[15]
  TGI: 3.74 µM
[16]
  TGI: > 39.7 µM
[17]
  TGI: 9.52 µM
[18]
  TGI: 18.3 µM
[19]
  TGI: 8.72 µM
[20]
  TGI: 40.2 µM
[21]
  TGI: > 36.7 µM
[22]
  TGI: 4.74 µM
[23]
  TGI: 2.67 µM
[24]
  TGI: 26.5 µM
[25]
  TGI: > 40.6 µM
[26]
  TGI: 13.6 µM
[27]
  TGI: 74.5 µM
[28]
  TGI: > 46 µM
[29]
  TGI: > 41.9 µM
[30]
  TGI: 9.44 µM
[31]
  TGI: 13.6 µM
[32]
  TGI: 18.2 µM
[33]
  TGI: 3.59 µM
[34]
  TGI: > 26.3 µM
[35]
  TGI: 23.1 µM
[36]
  TGI: > 38.1 µM
[37]
  TGI: 11.8 µM
[38]
  TGI: 9.2 µM
[39]
  TGI: 22.6 µM
[40]
  TGI: 38.5 µM
[41]
  TGI: > 40.7 µM
[42]
  TGI: > 48.5 µM
[43]
  TGI: 22.6 µM
[44]
  TGI: 7.04 µM
[45]
  TGI: 27.6 µM
[46]
  TGI: 40.3 µM
[47]
  TGI: 19.6 µM
[48]
  TGI: 14.8 µM
[49]
  TGI: 27.4 µM
[50]
  TGI: 10.5 µM
[51]
  TGI: 28.1 µM
[52]
  TGI: 22.6 µM
[53]
  TGI: > 37.6 µM
[54]
  TGI: 12.1 µM
[55]
  TGI: > 51.5 µM
[56]
  TGI: 12.1 µM
[57]
  TGI: 16.1 µM
[58]
  TGI: 28.6 µM

## COc1cc2nc3c(=C(C#N)C#N)c4ccccc4n3c(=O)c2cc1OC
[1]
  TGI: > 100 µM
[2]
  TGI: > 100 µM
[3]
  TGI: > 100 µM
[4]
  TGI: > 100 µM
[5]
  TGI: > 100 µM
[7]
  TGI: > 100 µM
[8]
  TGI: > 100 µM
[9]
  TGI: > 100 µM
[10]
  TGI: > 100 µM
[11]
  TGI: > 100 µM
[12]
  TGI: > 100 µM
[13]
  TGI: > 100 µM
[14]
  TGI: > 100 µM
[15]
  TGI: > 100 µM
[16]
  TGI: > 100 µM
[17]
  TGI: > 100 µM
[18]
  TGI: > 100 µM
[19]
  TGI: > 100 µM
[20]
  TGI: > 100 µM
[21]
  TGI: > 100 µM
[22]
  TGI: > 100 µM
[23]
  TGI: > 100 µM
[24]
  TGI: > 100 µM
[25]
  TGI: > 100 µM
[26]
  TGI: > 100 µM
[27]
  TGI: > 100 µM
[28]
  TGI: > 100 µM
[29]
  TGI: > 100 µM
[30]
  TGI: > 100 µM
[31]
  TGI: > 100 µM
[32]
  TGI: > 100 µM
[33]
  TGI: > 100 µM
[34]
  TGI: > 100 µM
[35]
  TGI: > 100 µM
[36]
  TGI: > 100 µM
[37]
  TGI: > 100 µM
[38]
  TGI: > 100 µM
[39]
  TGI: > 100 µM
[40]
  TGI: > 100 µM
[41]
  TGI: > 100 µM
[42]
  TGI: > 100 µM
[43]
  TGI: > 100 µM
[44]
  TGI: > 100 µM
[46]
  TGI: > 100 µM
[47]
  TGI: > 100 µM
[48]
  TGI: > 100 µM
[49]
  TGI: > 100 µM
[50]
  TGI: > 100 µM
[51]
  TGI: > 100 µM
[52]
  TGI: > 100 µM
[53]
  TGI: > 100 µM
[54]
  TGI: > 100 µM
[55]
  TGI: > 100 µM
[56]
  TGI: > 100 µM
[57]
  TGI: > 100 µM
[58]
  TGI: > 100 µM

## C=C(C)c1nc(C#N)c(N)o1
[2]
  TGI: > 100 µM
[3]
  TGI: > 100 µM
[4]
  TGI: > 100 µM
[5]
  TGI: > 100 µM
[6]
  TGI: > 100 µM
[8]
  TGI: > 100 µM
[9]
  TGI: > 100 µM
[11]
  TGI: > 100 µM
[12]
  TGI: > 100 µM
[13]
  TGI: > 100 µM
[14]
  TGI: > 100 µM
[15]
  TGI: > 100 µM
[16]
  TGI: > 100 µM
[17]
  TGI: > 100 µM
[18]
  TGI: > 100 µM
[19]
  TGI: > 100 µM
[20]
  TGI: > 100 µM
[21]
  TGI: > 100 µM
[23]
  TGI: > 100 µM
[24]
  TGI: > 100 µM
[25]
  TGI: > 100 µM
[26]
  TGI: > 100 µM
[28]
  TGI: > 100 µM
[29]
  TGI: > 100 µM
[30]
  TGI: > 100 µM
[31]
  TGI: > 100 µM
[32]
  TGI: > 100 µM
[33]
  TGI: > 100 µM
[34]
  TGI: > 100 µM
[35]
  TGI: > 100 µM
[36]
  TGI: > 100 µM
[37]
  TGI: > 100 µM
[38]
  TGI: > 100 µM
[39]
  TGI: > 100 µM
[40]
  TGI: > 100 µM
[41]
  TGI: > 100 µM
[42]
  TGI: > 100 µM
[43]
  TGI: > 100 µM
[44]
  TGI: > 100 µM
[45]
  TGI: > 100 µM
[46]
  TGI: > 100 µM
[47]
  TGI: > 100 µM
[48]
  TGI: > 100 µM
[49]
  TGI: > 100 µM
[50]
  TGI: > 100 µM
[51]
  TGI: > 100 µM
[52]
  TGI: > 100 µM
[53]
  TGI: > 100 µM
[54]
  TGI: > 100 µM
[55]
  TGI: > 100 µM
[56]
  TGI: > 100 µM
[57]
  TGI: > 100 µM
[58]
  TGI: > 100 µM
